Target: T1, human Nav1.1 (Homo sapiens, UniProt P35498)
T1 construct: host or cells: HEK293
Assay: Amplification of Nav1.1-derived voltage-dependent sodium current (Nav1.1 current), cell line stably expressing human Nav1.1, automated patch clamp
Assay type: cell-based
Settings: 10 μmol/L compound (Test Result 5)
Description: Test 1: Evaluation of the Amplification of Nav1.1-Derived Voltage-Dependent Sodium Current (Nav1.1 Current) by Using a Cell Line Stably Expressing Human Nav1.1
(1) Preparation of Test Compounds
Test compounds were prepared by dissolving in DMSO at 200 times of the concentration at evaluation, and diluting the obtained solution to twice the concentration of evaluation with an extracellular fluid (135 mmol/L NaCl, 4 mmol/L KCl, 1 mmol/L MgCl2, 5 mmol/L CaCl2, 5 mmol/L Glucose, 10 mmol/L HEPES).
(2) Induction and Measurement of Nav1.1 Current
A HEK293 cell line stably expressing human Nav1.1 (cat #CYL3009, Millipore, USA, Human Embryonic Kidney 293) was purchased, and used in the present test. Nav1.1 current was induced by stimulating Ramp wave voltage. Detection of current which accompanied with the stimulation of voltage was carried out by a patch-clamp voltage-clamp method using HTS automated patch clamp system (SynchroPatch 768PE, Nanion Technologies GmbH, Germany). Only cells with more than 500 pA of voltage-dependent sodium channel current were used for the evaluation of the activity of compounds on Nav1.1 current because there was the possibility that currents derived from endogenous voltage-dependent sodium channels accounted for large proportion in cells with less than 500 pA of voltage-dependent sodium channel current which was induced by stimulating Ramp wave voltage.
(3) Pharmacologic Effect on Nav1.1 Current
The effect of test compounds on the amplification of Nav1.1-derived voltage-dependent sodium current was evaluated by using a cell line stably expressing human Nav1.1 and HTS automated patch clamp system. In other words, test compounds were added in an extracellular fluid containing 1% DMSO, and evaluated as a change of the peak value of Nav1.1 current and the area under the curve (AUC).
(4) Method for Pharmacological Evaluation
The Nav1.1 current amplification rates of test compounds were calculated by the following formula:
Nav1.1 current amplification rate (%)=100×[the peak value of Nav1.1 current or the area under the curve after the addition of test compounds]/[the peak value of Nav1.1 current or the area under the curve before the addition of test compounds]−100

First: COC1CCN(c2ccc(=O)n(CC(=O)Nc3ccc(C#N)cc3)n2)CC1 [Example 9]
Second: CC(C)(C)C1CCN(c2ccc(=O)n(CC(=O)Nc3ccc(C#N)cc3)n2)CC1 [Example 6]
The “Nav1.1 current amplification rate (%)” value of the first is lower: 11% for the first, 35% for the second.

First: CC1CC=C(c2ccc(=O)n(CC(=O)Nc3ccnc(CO)c3)n2)CC1 (racemic) [Example 370]
Second: CC1CC=C(c2ccc(=O)n(CC(=O)N3CCC(Cc4ccccc4)C3)n2)CC1 (racemic) [Example 389]
The “Nav1.1 current amplification rate (%)” value of the first is lower: 35% for the first, 53% for the second.

First: N#Cc1ccc(NC(=O)Cn2nc(N3CCCC(O)C3)ccc2=O)cc1 (stereo not shown) [Example 7]
Second: N#Cc1ccc(NC(=O)Cn2nc(N3CCCC(C(F)(F)F)C3)ccc2=O)cc1 (stereo not shown) [Example 16]
The “Nav1.1 current amplification rate (%)” value of the first is lower: 3% for the first, 59% for the second.

Going from N#Cc1ccc(NC(=O)Cn2nc(N3CCC4(CCCC4)C3)ccc2=O)cc1 [Example 24] to N#Cc1ccc(NC(=O)Cn2nc(N3CCCC4(CCC4)C3)ccc2=O)cc1 [Example 33], the “Nav1.1 current amplification rate (%)” value falls from 286% to 220%.

First: Cc1c(N2CCC(C)CC2)nn(CC(=O)Nc2ccc(C#N)cc2)c(=O)c1C [Example 35]
Second: N#Cc1ccc(NC(=O)Cn2nc(N3CCCCC3)ccc2=O)cc1 [Example 3]
The “Nav1.1 current amplification rate (%)” value of the first is higher: 301% for the first, 40% for the second.

Going from CC1CC=C(c2ccc(=O)n(CC(=O)N3CCc4c(C5CN(C(C)C)C5)cccc43)n2)CC1 (racemic) [Example 304] to N#Cc1ccc(NC(=O)Cn2nc(C3=CCCCC3)ccc2=O)cc1 [Example 39], the “Nav1.1 current amplification rate (%)” value falls from 167% to 125%.

Compared with CC1(C)CCCC(c2ccc(=O)n(CC(=O)Nc3ccc(C#N)cc3)n2)C1 (stereo not shown) [Example 46], N#Cc1ccc(NC(=O)Cn2nc(C3CCC(F)(F)CC3)ccc2=O)cc1 [Example 47] is lower in “Nav1.1 current amplification rate (%)” value: 85% for the first, 11% for the second.

First: N#Cc1ccc(NC(=O)Cn2nc(C3=CCCCO3)ccc2=O)cc1 [Example 48]
Second: CC1(C)CCC=C(c2ccc(=O)n(CC(=O)Nc3ccc(C#N)cc3)n2)C1 [Example 45]
The “Nav1.1 current amplification rate (%)” value of the first is lower: 33% for the first, 202% for the second.

Compared with N#Cc1ccc(NC(=O)Cn2nc(N3CCC4(CC3)CC(F)(F)C4)ccc2=O)cc1 [Example 32], N#Cc1ccc(NC(=O)Cn2nc(N3CCC4(CC3)CC4)ccc2=O)cc1 [Example 17] is higher in “Nav1.1 current amplification rate (%)” value: 60% for the first, 212% for the second.

Same assay, conditions: 10 μmol/L compound (Test Result 5); read-out: Nav1.1 current amplification rate (%)

Going from CC1(C)CCC(c2ccc(=O)n(CC(=O)Nc3ccc(C#N)cc3)n2)CC1 [Example 38, N-(4-Cyanophenyl)-2-[3-(4,4-dimethylcyclohexyl)-6-oxopyridazin-1(6H)-yl]acetamide] to CC1(C)CCN(c2ccc(=O)n(CC(=O)Nc3ccc(C#N)cc3)n2)CC1 [Example 2, N-(4-Cyanophenyl)-2-[3-(4,4-dimethylpiperidin-1-yl)-6-oxopyridazin-1(6H)-yl]acetamide], the activation at 10 µM falls from 174% to 148%.

COc1cccc2c1CCN2C(=O)Cn1nc(N2CCC(C)(C)CC2)ccc1=O [Example 186] showed an activation at 10 µM of 51%.

Same assay, conditions: Concentration 1 μM (Test Result 7); read-out: Nav1.1 current amplification rate (%)

Going from O=C(Cn1nc(N2CCC3(CC3)C(F)(F)C2)ccc1=O)Nc1ccn2ncnc2c1 [Example 557] to N#Cc1ccc(NC(=O)Cn2nc(N3CCC4(CC4)C(F)(F)C3)ccc2=O)cn1 [Example 560], the activation at 1 µM falls from 17% to 12%.

Compared with CN(CC1(C)CC1)c1ccc(=O)n(CC(=O)N2CCc3c(N4CCOCC4)cccc32)n1 [Example 568], CN(c1ccc(=O)n(CC(=O)N2CCc3c(-c4ccnnc4)cccc32)n1)C1CCCC1 [Example 562] is higher in activation at 1 µM: 42% for the first, 247% for the second.

Going from CN(c1ccc(=O)n(CC(=O)Nc2ccn3ncnc3c2)n1)C1CCCC1 [Example 556] to COc1cc(=O)n(CC(=O)Nc2ccc3cncnc3c2)nc1C1=CCC(C)(C)CC1 [Example 541], the activation at 1 µM rises from 13% to 325%.

Same assay, conditions: Concentration 10 μM (Test Result 7); read-out: Nav1.1 current amplification rate (%)

Going from CN(c1ccc(=O)n(CC(=O)Nc2cnc3cccnc3c2)n1)C1CCCC1 [Example 564] to CN(CC1CC1)c1ccc(=O)n(CC(=O)Nc2ccn3ncnc3c2)n1 [Example 559], the activation at 10 µM falls from 73% to 34%.

Same assay, conditions: compound 50 μmol/L; HEK293 stably expressing human Nav1.1

First: Cc1nc(N2CCN(C(=O)Cn3nc(C4=CCC(C)CC4)ccc3=O)CC2)no1 (stereo not shown) [Example 406]
Second: CC1CC=C(c2ccc(=O)n(CC(=O)N3CCN(c4ccn(C)n4)CC3)n2)CC1 (stereo not shown) [Example 412]
The “Nav1.1 current amplification rate (%)” value of the first is higher: 68% for the first, 36% for the second.

First: CC1CC=C(c2ccc(=O)n(CC(=O)N3CCN(C4CCCOC4)CC3)n2)CC1 (stereo not shown) [Example 408]
Second: CC1CC=C(c2ccc(=O)n(CC(=O)N3CC=C(c4cccnc4)C3)n2)CC1 (racemic) [Example 386]
The “Nav1.1 current amplification rate (%)” value of the first is lower: 80% for the first, 126% for the second.

Going from CC1CC=C(c2ccc(=O)n(CC(=O)Nc3ccc4ncccc4c3)n2)CC1 (racemic) [Example 357] to CC1CC=C(c2ccc(=O)n(CC(=O)N3CC=C(c4ccccn4)C3)n2)CC1 (racemic) [Example 385], the “Nav1.1 current amplification rate (%)” value falls from 43% to 42%.

First: CC1CC=C(c2ccc(=O)n(CC(=O)Nc3cncc(CN(C)C)c3)n2)CC1 (racemic) [Example 365]
Second: COC1CN(Cc2cncc(NC(=O)Cn3nc(C4=CCC(C)CC4)ccc3=O)c2)C1 (racemic) [Example 366]
The “Nav1.1 current amplification rate (%)” value of the first is lower: 32% for the first, 37% for the second.

Same assay, conditions: concentration of each compound 1 μmol/L (Test Result 6)

Going from CC1CC=C(c2ccc(=O)n(CC(=O)N3CCc4c(-c5cc[nH]n5)ccc(F)c43)n2)CC1 (racemic) [Example 292] to CC1CC=C(c2ccc(=O)n(CC(=O)N3CCc4c3ccnc4-c3cn[nH]c3)n2)CC1 (racemic) [Example 285], the “Nav1.1 current amplification rate (%)” value rises from 46% to 113%.

First: CC1CC=C(c2ccc(=O)n(CC(=O)N3CCc4c(CNC5CCOCC5)cccc43)n2)CC1 (racemic) [Example 317]
Second: COC1CCN(Cc2cccc3c2CCN3C(=O)Cn2nc(C3=CCC(C)CC3)ccc2=O)C1 (mixture of isomers) [Example 273]
The “Nav1.1 current amplification rate (%)” value of the first is lower: 41% for the first, 77% for the second.

First: CC1CC=C(c2ccc(=O)n(CC(=O)N3CCCN(c4cccnc4)CC3)n2)CC1 (racemic) [Example 384]
Second: CC1CC=C(c2ccc(=O)n(CC(=O)N3CC=C(c4ccncc4)C3)n2)CC1 (racemic) [Example 387]
The “Nav1.1 current amplification rate (%)” value of the first is lower: 15% for the first, 19% for the second.

Compared with CC1CC=C(c2ccc(=O)n(CC(=O)N3CCc4c3ccnc4C3=CCOCC3)n2)CC1 (racemic) [Example 296], CC1CC=C(c2ccc(=O)n(CC(=O)N3CCc4c3ccnc4C3=CCN(C)C3)n2)CC1 (racemic) [Example 283] is lower in “Nav1.1 current amplification rate (%)” value: 87% for the first, 15% for the second.

Compared with COCCNCc1cccc2c1CCN2C(=O)Cn1nc(C2=CCC(C)CC2)ccc1=O (racemic) [Example 314], COC1CN(Cc2cccc3c2CCN3C(=O)Cn2nc(C3=CCC(C)CC3)ccc2=O)C1 (racemic) [Example 274] is higher in “Nav1.1 current amplification rate (%)” value: 9% for the first, 60% for the second.

Compared with CC1CC=C(c2ccc(=O)n(CC(=O)Nc3cnc4nccn4c3)n2)CC1 (racemic) [Example 337], CC1CC=C(c2ccc(=O)n(CC(=O)Nc3cncc(C4=CCN(C)C4)c3)n2)CC1 (racemic) [Example 367] is lower in “Nav1.1 current amplification rate (%)” value: 52% for the first, 38% for the second.

Going from CC1CC=C(c2ccc(=O)n(CC(=O)Nc3cncc(C4=COCCC4)c3)n2)CC1 (racemic) [Example 382] to Cc1ncc(-c2cncc(NC(=O)Cn3nc(C4=CCC(C)CC4)ccc3=O)c2)o1 (racemic) [Example 380], the “Nav1.1 current amplification rate (%)” value rises from 13% to 82%.

CC1CC=C(c2ccc(=O)n(CC(=O)N3CCc4cc(-c5cccnc5)ccc43)n2)CC1 (racemic) [Example 298] was tested, and the “Nav1.1 current amplification rate (%)” value was 51%.

Same assay, conditions: concentration of each compound 1 μmol/L (Test Result 6); read-out: Nav1.1 current amplification rate (%)

First: Cc1cc(=O)n(CC(=O)Nc2ccc3oc(N(C)C)nc3c2)nc1C1=CCC(C)(C)CC1 [Example 504]
Second: CC1(C)CC=C(c2ccc(=O)n(CC(=O)Nc3ccn4ncnc4c3)n2)C1 [Example 496]
The activation at 1 µM of the first is lower: 27% for the first, 37% for the second.

Going from O=C(Cn1nc(C2=CCCCC2)ccc1=O)N1CCc2c(CN3CCOCC3)cccc21 [Example 519] to O=C(Cn1nc(N2CCC3(CCC3)C2)ccc1=O)Nc1ccc2cncnc2c1 [Example 236, 2-[3-(6-azaspiro[3.4]octan-6-yl)-6-oxopyridazin-1(6H)-yl]-N-(quinazolin-7-yl)acetamide], the activation at 1 µM rises from 135% to 214%.

First: CC1(C)CCN(c2ccc(=O)n(CC(=O)Nc3ccn4ncnc4c3)n2)CC1 [Example 228]
Second: CC1CCN(c2ccc(=O)n(CC(=O)Nc3ccn4ncnc4c3)n2)CC1 [Example 229]
The activation at 1 µM of the first is lower: 29% for the first, 34% for the second.

Reference: US20220347175A1, “PYRIDAZINONE DERIVATIVE” (Sumitomo Dainippon Pharma Co., Ltd., priority 2018, published 2022)
